In patent US8097612B2 (priority 2006, dated 2012) one finds Ki, IC50 and LD50 data, which are given here for two compounds.

Series [1] deals with F1Fo-ATPase. Description: Inhibition of the F1Fo-ATPase. Format: biochemical. To be noted: binds to the OSCP in F1. From the text: F1Fo-ATPase inhibitors are invaluable tools for mechanistic studies of the F1Fo-ATPase (see, e.g., James A M, et al., J Biomed Sci 2002; 9:475-87; herein incorporated by reference in its entirety). Because F1Fo-ATPase inhibitors are often cytotoxic, they have been explored as drugs for cancer and other hyperproliferative disorders. Macrolides (e.g., oligomycin and apoptolidin) are non-competitive inhibitors of the F1Fo-ATPase (see, e.g., Salomon A R, et al., PNAS 2000; 97:14766-71; Salomon A R, et al., Chem Biol 2001; 8:71-80; herein incorporated by reference in its entirety). Macrolides bind to Fo which blocks proton flow through the channel resulting in inhibition of the F1Fo-ATPase. Macrolides are potent (e.g., the IC50 for oligomycin=10 nM) and lead to large decreases in [ATP]. As such, macrolides have an unacceptably narrow therapeutic index and are highly toxic (e.g., the LD50 for oligomycin in rodents is two daily doses at 0.5 mg/kg) (see, e.g., Kramar R, et al., Agents & Actions 1984, 15:660-63; herein incorporated by reference in its entirety). Other inhibitors of F1Fo-ATPase include Bz-423, which binds to the OSCP in F1 (as described elsewhere herein). Bz-423 has an Ki˜9 μM.

Series [2] deals with F1Fo-ATPase. The conditions noted are these: macrolide, non-competitive inhibitor binding to Fo; read-out: IC50 for inhibition of the F1Fo-ATPase; cited from earlier work.
Series [3] has as its system rodents. To be noted: two daily doses; cited from earlier work.

For orientation: Ki means a measure of affinity in units of concentration, obtained from inhibition or displacement. Low values mean higher affinity, high ones lower affinity. Broadly, the IC50 is the concentration at which inhibition is half-maximal. By LD50 is commonly meant the dose expected to kill half of the subjects tested.

For the compound `CN1C(=O)C(Cc2ccc3ccccc3c2)N=C(c2ccc(O)cc2)c2cc(Cl)ccc21` (stereo not drawn) [Bz-423], the Ki in series [1] was roughly 9 µM.

For the compound `CC[C@H]1/C=C/C=C/C[C@@H](C)[C@H](O)[C@@](C)(O)C(=O)[C@@H](C)[C@H](O)[C@@H](C)C(=O)[C@@H](C)[C@H](O)[C@@H](C)/C=C/C(=O)O[C@@H]2[C@H](C)[C@H](CC1)O[C@]1(CC[C@H](C)[C@H](C[C@@H](C)O)O1)[C@H]2C` [oligomycin], the IC50 in series [2] is 0.01 µM. Besides, the LD50 in series [3] is recorded as 0.5 mg/kg.
